Data reported in patent US11419843B2, “Small molecule BCL-2 functional converters as cancer therapeutics” (Oregon State University, priority 2016, dated 2022).

Key:
[1] = tested on: MDA-MB-468 parental and derived paclitaxel or doxorubicin resistant cells; assay: Viability of MDA-MB-468 parental and derived resistant cells; type: cell-based, human
Experimental: Percentage viability relative to vehicle treatment. Representative of three independent assays in triplicate.
Percentage viability relative to vehicle treatment.
Percentage viability relative to vehicle treatment. Representative of three independent assays conducted in triplicate.
Cells of interest were plated at 2000 cells per well in 96-well black tissue culture plate and allowed to adhere to the plate overnight. Viability assays were performed using 10% serum medium unless otherwise stated. Drugs were diluted in supplemented tissue culture medium and added at increasing concentrations, with DMSO as a vehicle control. Cells were then incubated for either 48 hour or 72 hours in presence of the compound, Promega Titer Glo was added to the wells at the assay end point according to manufacturer's protocol. Luminescence was measured using Tropix TR717 Microplate luminometer. Percentage of viable cells is relative to vehicle (100%). As a complementary viability assay, eBioscience Fixable Viability Dye eFluor 660(65-0864) was used to stain dead cells and analyzed using flow cytometry.

[2] = target: T1, Nur77 interaction with Bcl-2 (Homo sapiens, UniProt P10415); assay: Co-immunoprecipitation, competition with Nur77 for Bcl-2; type: binding; settings: 10 μM MTX, 16 h, HEK293T cells
T1 construct: expressed in transfected cells; host or cells: HEK293T
T1 sequence (P10415 whole entry): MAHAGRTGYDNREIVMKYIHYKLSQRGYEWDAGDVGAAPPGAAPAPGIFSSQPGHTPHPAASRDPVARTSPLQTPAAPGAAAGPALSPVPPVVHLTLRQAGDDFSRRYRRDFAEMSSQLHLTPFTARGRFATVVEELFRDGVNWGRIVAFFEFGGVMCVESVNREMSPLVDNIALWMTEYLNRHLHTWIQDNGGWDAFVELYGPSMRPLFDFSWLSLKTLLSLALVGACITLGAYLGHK
Experimental: Methotrexate reduced the interaction of Nur-77 with BCl-2 domain upon co-incubation indicating methotrexate interacts with the same region of loop domain as does Nur-77.
For CoIP experiments, HEK293T cells were plated in a 6 well plate and transfected with indicated expression plasmids by lipofectamine. The total amount of DNA was maintained at 2.5 μg. After 12 h of transfection, cells were treated with DMSO or 10 μM MTX for 16 h. The cells were then lysed on ice using RIPA buffer with freshly added protease inhibitor cocktail (Complete, mini, EDTA-free protease inhibitor cocktail, Roche, Inc.). The lysis buffer contained either DMSO or 10 μM MTX. Cell lysates were incubated on ice for 30 min and then spun at 14,000 rpm for 30 min at 4° C. Cleared lysates were incubated with Bcl-2 antibody (sc-509, Santacruz) and incubated at 4° C. for 2-4 h end-over-end mixing. After incubation a volume of sepharose beads (sc-2003, Santacruz) were added to each sample and left end-over-end mixing overnight at 4° C. The beads were then washed four times with RIPA buffer containing either DMSO or 10 μM and then solubilized in laemmli buffer. Proteins were analyzed on 10-12% SDS-PAGE and immunoblotted with mouse polyclonal anti-Bcl-2 (sc-509, Santacruz), mouse polyclonal anti-GFP (33-2600, Thermofisher).

| SMILES | Viability of MDA-MB-468 doxorubicin resistant cells ([1]; 72 hour treatment) | Viability of MDA-MB-468 paclitaxel resistant vs parental cells ([1]; 72 hours) | Competition with Nur77 for interaction with Bcl-2 [2] |
| --- | --- | --- | --- |
| CCOc1ccccc1NC(=O)c1cc(Cl)ccc1NC(=O)c1ccc(OC)cc1 [BFC1108, 5-chloro-N-(2-ethoxyphenyl)-2-[(4-methoxybenzoyl)amino]-benzamide] | reduced viability of doxorubicin resistant cells | preferentially killed by BFC1108 in a dose dependent manner |  |
| CN(Cc1cnc2nc(N)nc(N)c2n1)c1ccc(C(=O)N[C@@H](CCC(=O)O)C(=O)O)cc1 [MTX, (2S)-2-[[4-[(2,4 diaminopteridin-6-yl)methylmethylamino]benzoyl]amino] pentanedioc acid] |  |  | competition between MTX and Nur77 in interacting with the Bcl-2 protein could be seen |
